{"source": "patent US20030181401A1", "about": "“Insulin secretion promoter” (KYOWA HAKKO KOGYO CO., LTD., priority 2002, published 2003)", "format_in_all_cases": "in vivo", "key": {"[1]": {"test_system": "STZ-induced diabetic rats (Wistar)", "test": "Test Example 9: serum insulin in glucose tolerance test, Type I diabetes mellitus model", "method": "Male 7-week-old Wistar rats (Japan SLC, Inc.) were fed CE-2 (Clea Japan, Inc.) for one week, so as to accustom the rats to the environment.\nAfter 18-hour starvation of the accustomed rats, […] of 50 mM citrate buffer, pH 4.5containing 15 mg of streptozotocin (WAKO Pure Chemical Industries, Inc.; abbreviated as “STZ” hereinafter) was prepared and administered to 25 mg (STZ)/kg body weight from their tail vein. Five days after the STZ administration, the rats were fasted for 18 hours. Blood was taken from puncture in the tail vein to assay blood glucose with a simple-type blood glucose assay apparatus Medisafe Reader GR-101 (Terumo, Co., Ltd.), to select 5 rats (Nos. 1, 3, 4, 5, 8) at mild state of diabetes mellitus with a blood glucose level of 200 mg/dl or less.\nAn aqueous 2% solution of 2′-fucosyllactose was prepared and administered to the rat No. 1 from the tail vein to 50 mg/kg body weight on a 2′-FL dose basis. 0.9% physiological saline was administered to rats Nos. 3, 4, 5 and 8. […] Zero minute and 30, 60, 120, and 240 minutes after glucose loading, blood was taken from a tail vein, to assay blood glucose with Medisafe Reader GR-101 and collect the serum.\n12 days after the STZ dosing, the rats were fasted for 18 hours. […] Zero minute and 30, 60, 120, and 240 minutes after glucose loading, blood was taken from a tail vein, to assay blood glucose with Medisafe Reader GR-101 and collect the serum.\nInsulin in the serum was assayed by enzyme immunoassay using Morinaga ultra-sensitive rat insulin assay kit (Morinaga Biochemical Research Institute, Co., Ltd.) in the same manner as in Test Example 8. Additionally, a standard curve was prepared by diluting […] of the standard insulin (rat) attached to the kit with 100 μl of saline to use the resulting 25.6 ng/ml insulin solution as the standard solution, diluting the standard solution appropriately with the diluent attached to the kit for the same reaction as for the serum, and plotting the relation between the concentration and the absorbance at the principal wave length of 450 nm and at the sub wave length of 655 nm. […]"}, "ICR mice [2]": {"test_system": "ICR mice", "test": "Test Example 6: serum insulin after intravenous saccharide with simultaneous oral glucose loading", "method": "Groups of male 9-week-old ICR mice (Japan SLC, Inc.) each consisting of 7 mice were fed CE-2 (Clea Japan, Inc.) for one week, so as to accustom the animals to the environment. Then, the mice were fasted for 18 hours.\nAn aqueous 10% solution of 2′-FL or NeuAc was intravenously administered to the mice to 500 mg (saccharide)/kg body weight, while an aqueous 40% glucose solution was orally administered simultaneously to 2 g (glucose)/kg body weight, to the mice. To the control group, physiological saline was administered intravenously, while glucose was orally administered simultaneously to 2 g/kg body weight. Zero minute and 30 minutes after glucose loading, blood was taken from a tail vein. […] Blood was centrifuged (4° C., 10000 rpm, 10 minutes), to obtain serum.\n(§1) Insulin in the serum recovered was assayed by enzyme immunoassay using Lebis Insulin kit (for mice-T) (Shibayagi, Co., Ltd.) in the same manner as in the Test Example 2."}, "ICR mice [3]": {"test_system": "ICR mice", "test": "Test Example 2: serum insulin in glucose tolerance test after 7-day oral dosing, normal mice", "method": "Eleven male 9-week-old ICR mice as normal mice (SLC, Inc.) were fed a commercially available CE-2 (Clea Japan, Inc.) for one week, so as to accustom the mice to the environment.\nAfter acclimation, an aqueous 10% solution of 2′-fucosyllactose was orally administered to the mice at 200 mg (2′-FL)/kg body weight in the morning and at 300 mg (2′-FL)/kg body weight in the evening. The same volume of saline was administered to the control group. The aqueous 2′-FL solution and saline were both dosed daily to the mice for 7 days.\nDuring the dosing period, CE-2 was given together with drinking water ad libitum. […]\nAfter the reaction, the plate was rinsed four times with the rinse solution. […] The absorbance of the reaction solution in the wells at 450 nm was read with a plate reader. Herein, a standard curve was prepared by using the standard insulin solution (mice, 200 ng/ml) attached to the kit as a standard solution to dilute the standard solution appropriately with the buffer solution attached to the kit for the same reaction as for the serum, and plotting the relation between the concentration and the absorbance (450 nm). Based on the prepared standard curve and the absorbance from the reaction with the serum, the insulin concentration in the serum was determined."}, "ICR mice [4]": {"test_system": "ICR mice", "test": "Test Example 7: serum insulin after intravenous 2′-FL dosing without glucose loading", "method": "Groups of male 9-week-old ICR mice (Japan SLC, Inc.) each consisting of 7 mice were fed a commercially available CE-2 (Clea Japan, Inc.) for one week, so as to accustom the mice to the environment. Thereafter, an aqueous 1% solution of 2′-FL was intravenously administered to the mice to 50 mg (2′-FL)/kg body weight. The same volume of saline was administered to the control group. Zero minute and 30 minutes after dosing, blood was taken from a tail vein. […] Blood was centrifuged (4° C., 10000 rpm, 10 minutes), to obtain serum.\nas §1"}}, "note": "Where “and” joins values, the source holds several entries; their conditions need not be identical. Identical values can stand only once.", "data": [{"substance": "2′-fucosyllactose [2′-FL]", "values": [{"measurement": "serum insulin concentration via glucose loading (in words)", "setting": "[1]; STZ-induced diabetic rats, glucose loading 2 hours after intravenous dosing", "result": "increased"}, {"measurement": "Serum insulin concentration, 0 minute", "setting": "[1]; individual STZ rats Nos. 1, 3, 4, 5, 8, 50 mg/kg intravenous two hours before glucose 1 g/kg oral, 0 minute after glucose loading, 50 mg/kg", "result": "125.8 pg/mL and 697.0 pg/mL and 197.4 pg/mL and 180.4 pg/mL and 312.5 pg/mL"}, {"measurement": "Serum insulin concentration, 30 minutes", "setting": "[1]; individual STZ rats Nos. 1, 3, 4, 5, 8, 50 mg/kg intravenous two hours before glucose 1 g/kg oral, 30 minutes after glucose loading, 50 mg/kg", "result": "331.1 pg/mL and 586.6 pg/mL and 915.1 pg/mL and 475.5 pg/mL and 148.4 pg/mL"}, {"measurement": "Serum insulin concentration after glucose loading, 30 minutes", "setting": "ICR mice [2]; ICR mice fasted 18 hours, 500 mg/kg intravenous with simultaneous glucose 2 g/kg oral, 30 minutes, mean ± SD", "result": "192.3 ± 57.4", "unit": "pg/mL"}, {"measurement": "Serum insulin concentration after glucose loading, 120 minutes", "setting": "ICR mice [2]; ICR mice fasted 18 hours, 500 mg/kg intravenous with simultaneous glucose 2 g/kg oral, 120 minutes, mean ± SD", "result": "2090.7 ± 533.1", "unit": "pg/mL"}, {"measurement": "serum insulin concentration after glucose loading compared with the control group (in words)", "setting": "ICR mice [2]; ICR mice, intravenous dosing", "result": "increased"}, {"measurement": "insulin concentration 120 minutes after glucose loading compared with the control group (in words)", "setting": "ICR mice [3]; continuous daily oral dosing", "result": "increased"}, {"measurement": "Serum insulin concentration after glucose loading, 120 minutes", "setting": "ICR mice [3]; oral 200 + 300 mg/kg daily, 7 days, glucose 2 g/kg oral, 120 minutes, mean ± SD", "result": "0.35 ± 0.24", "unit": "ng/mL"}, {"measurement": "Serum insulin concentration after 2′-FL dosing, 30 minutes", "setting": "ICR mice [4]; 50 mg/kg intravenous, no glucose loading, 30 minutes after dosing, mean ± SD", "result": "168.6 ± 40.2", "unit": "pg/mL"}, {"measurement": "Serum insulin concentration after 2′-FL dosing, 120 minutes", "setting": "ICR mice [4]; 50 mg/kg intravenous, no glucose loading, 120 minutes after dosing, mean ± SD", "result": "2035.9 ± 1098.0", "unit": "pg/mL"}, {"measurement": "serum insulin concentration compared with the control group (in words)", "setting": "ICR mice [4]; intravenous 2′-FL dosing", "result": "increased"}]}]}
